# Laboratory results: US20250144247A1, “FORMULATIONS TO ENHANCE THE DELIVERY OF GENE THERAPY VECTORS” (priority 2023, published 2025)
# Read-outs that look alike come from different tables or passages of the source.
# Legend:
# [1] = tested on: human airway epithelial cells (HAE); type: cell-based; settings: for Ad gene transfer: imaged 5 days
# [2] = tested on: human airway epithelial cells (HAE); test: LDH release / integrity of HAE; type: cell-based
# Protocol: GFP images were acquired using a Keyence All-in-one Fluorescence Microscope BZ-X series (Osaka, Japan). 0.33 cm^2 Transwells were imaged at 2× magnification. GFP expression was quantified by flow cytometry as previously reported (36). Briefly, cells were stained with a fixable LIVE/DEAD stain (Thermo Fisher Scientific, Waltham, MA, USA), lifted in Accutase at 37° C. for 30 minutes, and run through an Attune NxT Flow Cytometer (Thermo Fisher Scientific, Waltham, MA, USA). Cells were treated with the Foxp3/Transcription Factor Staining Buffer Set (Thermo Fisher Scientific, Waltham, MA, USA) according to manufacturer's recommendations and stained for 1 hour at 37° C. with the following antibodies: NGFR (345110; 1:600, BioLegend, San Diego, CA, USA), α-tubulin (NB100-69AF405, 1:300, Novus, Centennial, CO, USA) and CD66c (12-0667-42, 1:600, Invitrogen, Waltham, MA). Expression was gated on live cells. Immunofluorescence staining of pig tissue sections was performed using acetylated α-tubulin (D20G3, 1:200, Cell Signaling Technology, Danvers, MA) or cytokeratin 5 (CK5) (Polyl9055, 1:500, San Diego, CA). Primary antibodies were detected using a goat anti-rabbit Alexa 546 secondary anti-body (A-11035, 1:600, Thermo Fisher Scientific, Waltham, MA).
# LDH release was quantified according to the manufacturer's recommendations (LDH-Glo Cytotoxicity Assay, Promega, Madison, WI). Briefly, basolateral media from each condition was collected in a 96 well plate. The LDH detection reagents were mixed in a 1:1 ratio and applied to each well and incubated for 30 minutes. Luminescence was recorded using a SpectraMax i3x plate reader.
# [3] = tested on: CFTR anion transport in CF HAE; test: Ussing chamber short circuit current and conductance of CF HAE; type: cell-based, human
# measles virus (MeV) = test: Measles virus (MeV) infection of HAE; type: cell-based, human; settings: wild-type MeV, NaCl (4%)
# Protocol: […] After infection, virus inoculums removed. […] After infection, basolateral-infected cultures were returned upright. All MeV infections took place for 4 hours in 37° C. at an MOI of 1 with a total inoculum of 50 μL.
# [4] = tested on: human airway epithelial cells (HAE); type: cell-based
# [5] = tested on: human airway epithelial cells (HAE); test: AAV2.5T-GFP transduction of HAE; type: cell-based; settings: NaCl 4.5%, MOI=100,000 vg/cell, 2 hours, doxorubicin 1 μM pre-treatment, 2 weeks
# [6] = tested on: newborn pig tracheal explants; test: Pig tracheal explant transduction ex vivo; settings: NaCl 5%, apical 2 hours
# Protocol: 0.25 cm^2 tracheal explants from newborn pigs were cultured on Surgifoam (1972, Ethicon, Raritan, NJ) for 3-5 days prior to transduction. Ad5-mcherry (1×10^9 TU), AAVH22-GFP (2×10^10 vg), and GP64 HIV-GFP (1.75×10^7 TU) were applied with or without NaCl (5%) to the apical surface of the trachea by inverting the trachea onto a tissue culture dish containing the viral solution for 2 hours then returned to an upright position on Surgifoam. 5 days post-transduction, tracheal explants were mounted on a microscope slide and imaged for fluorescent expression using confocal microscopy. Expression was quantified using Image J (FIJI) by measuring fluorescence intensity per high power field.
# Using freshly excised newborn pig tracheal explants maintained on Surgifoam, Ad-GFP or AAVH22-GFP (a pig-tropic AA V capsid)±NaCl (5%) was applied to the apical surface by inverting the tissue in a culture dish for 2 hours. One week later, tissues were fixed and imaged by confocal microscopy. […] Fluorescence was quantified by transduction area per high power field.
# mouse airways = test: Adenoviral transduction of mouse airways (Ad-luciferase, IVIS); type: in vivo, Balb/c mice; settings: Ad-luciferase intratracheal, 7% NaCl vs 0.9% NaCl, five days
# Protocol: 6-8-week-old Balb/c mice were sedated with ketamine/xylazine (87.5+2.5 mg/kg). Ad-CMV-firefly luciferase was delivered intratracheally with 1×10^9 TU formulated with NaCl (0.9% or 7% final) in a 50 ul volume. 5 days later mice were given intraperitoneal D-luciferin (50227, Millipore Sigma, St. Louis, MO) imaged for luminescence expression using the Xenogen IVIS-200.
# pig airways = test: Viral gene transfer in pig airways; type: in vivo, newborn pigs
# Protocol: Newborn pigs were sedated using isoflurane and viral vector formulated with NaCl (0.9% or 5% final) and acrosolized 2 ml intratracheally using a MADgic Laryngo-Tracheal Mucosal Atomization Device (Teleflex, Morrisville, NC). Doses for each vector for each pig were as follows: 2.8×10^10 infectious genomic units (IGU) of helper-dependent Ad-CMV-GFP and 7×10^8 TU of GP64 HIV-CMV-GFP. Doses were prepared by mixing a 1.8% NaCl or 10% NaCl stock 1:1 with 1 ml of vector. 1 week later, pigs were humanely euthanized, and lungs were analyzed for GFP expression. Lungs were systematically divided and fixed in 4% paraformaldehyde, subjected to a sucrose gradient, and embedded in OCT for cryosectioning. Sectioned lung slides were mounted using DAPI and imaged using a Keyence All-in-one Fluorescence Microscope BZ-X series (Osaka, Japan).
# To determine cell types transduced in vivo, a pig model that more closely recapitulates the anatomy and cell biology of human airways was used. Newborn pigs received Ad-GFP via intratracheal delivery with 0.9% NaCl or 5% NaCl. Five days after delivery, lungs were collected and GFP expression was visualized under a fluorescence dissecting microscope (data not shown). Lungs were divided into 20 regions for systematic quantification as previously described (data not shown) and scored based on level of expression (0=no expression, 1=low expression, 2=moderate expression, and 3=high expression) (data not shown).
# [7] = Osmolarity and pH of the solutions; type: physicochemical
# [8] = tested on: cultured cells on plastic; test: Gene transfer of cultured cells on plastic with hypertonic saline; type: cell-based
# [9] = tested on: human airway epithelial cells (HAE); test: Scanning electron microscopy of HAE surface; settings: NaCl 3.6% for 2 hours vs no NaCl control
smiles,measurement,setting,value
"[Cl-].[Na+] [NaCl, sodium chloride]",Ad gene transfer,"[1]; 0.9% NaCl (PBS), Ad-GFP MOI=250, apical 2 hours",did not enhance Ad gene transfer
same,"transduction of basal, secretory and ciliated cells","[1]; 1-7% NaCl, Ad-GFP MOI=250",all transduced in a dose dependent manner
same,"Ad-GFP transduction efficiency, comparison of osmolytes","[1]; 3.6% NaCl vs 3.6% NaGluconate, 3.6% KCl, 0.9% NaCl, 0.9% NaCl + mannitol, 2 h, 5 days",greatest increase in transduction efficiency
same,Ad gene transfer,"[1]; Ad-GFP MOI=250 combined 1:1 with reagent, apical 2 hours, LPC 0.1%, EGTA 250 mM, doxorubicin 5 μM, NaCl 3.6%, Infasurf",conferred remarkable transduction
same,co-treatment time giving maximal expression,[1]; Ad-GFP with NaCl 3.6%,2 h
same,% GFP+ cells across pH range,"[1]; NaCl 3.6% adjusted to pH 5, 6, 7, 7.4 and 8, Ad-GFP",no significant differences
same,% GFP+ cells versus length of exposure,"[1]; NaCl 3.6% or Ad-GFP for 5, 15, 30, 60 or 120 min",increased incrementally with increasing temporal exposure
same,Ad transduction efficiency (% GFP+ cells),"[1]; dose response 1-7% NaCl final, Ad-GFP MOI=250",dose dependent increase in transduction efficiency
same,benefit on Ad transduction,[1]; ≤3% NaCl,little benefit on transduction
same,effects on HAE integrity in vitro,[2]; 5% NaCl formulation,negative effects on HAE integrity
same,LDH release,[2]; highest concentrations of NaCl (5-7%),increased LDH release
same,NaCl doses with ultimate toxicity,[2]; in vitro HAE,> 6%
same,"Cl− secretion (short circuit current and conductance, F&I and GlyH)","[3]; CF HAE, Ad-CFTR (MOI=250) and NaCl 3.6%, apical 2 hours, 5 days",wild-type levels of Cl^− secretion
same,anion channel activity responses to F&I and GlyH,"[3]; CF airway cultures, AAV2.5T-CFTR with NaCl 4.5%, 2 weeks",increased anion channel activity responses
same,CFTR-dependent anion transport,"[3]; primary CF HAE, GP64 HIV-CFTR (MOI=50) in the presence of NaCl 4.5%",restored the CFTR-dependent anion transport
same,MeV infection following apical application,measles virus (MeV),occurred only in the presence of NaCl
same,"transduction of primary human CF cultures, GP64 HIV-GFP","[4]; MOI=50, NaCl formulation",remarkable levels of transduction
same,"GFP expression, GP64 HIV vector","[4]; non-CF HAE, 3.5, 4 or 4.5% NaCl, MOI=50",dose-dependent increase in GFP expression
same,"GFP expression, AAV-GFP (AAV2.5T)",[5],significantly higher GFP expression
same,transduction with Ad and AAVH22 (fluorescence per high power field),[6],markedly enhanced
same,luciferase expression (bioluminescence),mouse airways,significantly increased expression in the nose and lung
same,"GFP+ score (0-3, 20 lung regions)","pig airways; Ad-GFP intratracheal, NaCl 5% vs 0.9%, five days",significantly increased
same,transduction of ciliated cells and CK5+ basal cells,"pig airways; Ad-GFP, 5% NaCl",transduction of ciliated cells was observed
same,transduction of submucosal glands,"pig airways; Ad-GFP, 5% NaCl",high levels of transduction
same,transduction of large (>500 μm^2) and small (<500 μm^2) airways,"pig airways; Ad-GFP, 5% NaCl vs 0.9% NaCl",significantly more airway transduction
same,transduction by GP64 HIV-GFP,pig airways; NaCl 5% vs 0.9% NaCl,significantly enhanced transduction
same,Osmolarity,[7]; 0.9% solution,310 mOsmol/l
same,Osmolarity,[7]; 1% solution,342 mOsmol/l
same,Osmolarity,[7]; 2% solution,684 mOsmol/l
same,Osmolarity,[7]; 3% solution,1027 mOsmol/l
same,unadjusted pH,[7]; 3.6% NaCl in deionized water,~6
same,Osmolarity,[7]; 3.6% solution,1230 mOsmol/l
same,Osmolarity,[7]; 4% solution,1369 mOsmol/l
same,Osmolarity,[7]; 5% solution,1711 mOsmol/l
same,Osmolarity,[7]; 6% solution,2053 mOsmol/l
same,Osmolarity,[7]; 7% solution,2693 mOsmol/l
same,effect on cultured cells on plastic,[8],lifting of the cells
same,cell surface integrity and ciliation by SEM,[9],no overt physical differences
